Experiments:
[1] = Phytotoxicity against Oryza sativa (rice) assessed as growth inhibition at 25 g/a after 3 weeks in greenhouse conditions; format: organism-based; conditions: in vivo, read-out: GI
[2] = Phytotoxicity against Oryza sativa (rice) assessed as growth inhibition at 10 g/a after 3 weeks in greenhouse conditions; format: organism-based; conditions: in vivo, read-out: GI
Lindernia procumbens [3] = experiment: Pre-emergent herbicidal activity against Lindernia procumbens assessed as growth inhibition at 10 g/a after 3 weeks in greenhouse conditions; format: functional; conditions: pre-emergence, 504 h, read-out: GI
[4] = system: Schoenoplectiella juncoides; experiment: Pre-emergent herbicidal activity against Schoenoplectiella juncoides assessed as growth inhibition at 10 g/a after 3 weeks in greenhouse conditions; format: functional; conditions: pre-emergence, 504 h, read-out: GI
Echinochloa oryzicola [5] = experiment: Pre-emergent herbicidal activity against Echinochloa oryzicola assessed as growth inhibition at 25 g/a after 3 weeks in greenhouse conditions; format: functional; conditions: pre-emergence, 504 h, read-out: GI
Eleocharis acicularis [6] = experiment: Pre-emergent herbicidal activity against Eleocharis acicularis assessed as growth inhibition at 10 g/a after 3 weeks in greenhouse conditions; format: functional; conditions: pre-emergence, 504 h, read-out: GI
Eleocharis kuroguwai [7] = experiment: Pre-emergent herbicidal activity against Eleocharis kuroguwai assessed as growth inhibition at 10 g/a after 3 weeks in greenhouse conditions; format: functional; conditions: pre-emergence, 504 h, read-out: GI
Eleocharis acicularis [8] = experiment: Pre-emergent herbicidal activity against Eleocharis acicularis assessed as growth inhibition at 25 g/a after 3 weeks in greenhouse conditions; format: functional; conditions: pre-emergence, 504 h, read-out: GI
Echinochloa oryzicola [9] = experiment: Pre-emergent herbicidal activity against Echinochloa oryzicola assessed as growth inhibition at 10 g/a after 3 weeks in greenhouse conditions; format: functional; conditions: pre-emergence, 504 h, read-out: GI
Lindernia procumbens [10] = experiment: Pre-emergent herbicidal activity against Lindernia procumbens assessed as growth inhibition at 25 g/a after 3 weeks in greenhouse conditions; format: functional; conditions: pre-emergence, 504 h, read-out: GI
Cyperus serotinus [11] = experiment: Pre-emergent herbicidal activity against Cyperus serotinus assessed as growth inhibition at 25 g/a after 3 weeks in greenhouse conditions; format: functional; conditions: pre-emergence, 504 h, read-out: GI
Cyperus serotinus [12] = experiment: Pre-emergent herbicidal activity against Cyperus serotinus assessed as growth inhibition at 10 g/a after 3 weeks in greenhouse conditions; format: functional; conditions: pre-emergence, 504 h, read-out: GI
[13] = system: Schoenoplectiella juncoides; experiment: Pre-emergent herbicidal activity against Schoenoplectiella juncoides assessed as growth inhibition at 25 g/a after 3 weeks in greenhouse conditions; format: functional; conditions: pre-emergence, 504 h, read-out: GI
Eleocharis kuroguwai [14] = experiment: Pre-emergent herbicidal activity against Eleocharis kuroguwai assessed as growth inhibition at 25 g/a after 3 weeks in greenhouse conditions; format: functional; conditions: pre-emergence, 504 h, read-out: GI

Row | SMILES | inhibition at 504 h [1] [%] | inhibition at 504 h [2] [%] | inhibition of growth at 1000 g/ha (Lindernia procumbens [3]) [%] | inhibition of growth at 1000 g/ha [4] [%] | inhibition of growth at 2500 g/ha (Echinochloa oryzicola [5]) [%] | inhibition of growth at 1000 g/ha (Eleocharis acicularis [6]) [%] | inhibition of growth at 1000 g/ha (Eleocharis kuroguwai [7]) [%] | inhibition of growth at 2500 g/ha (Eleocharis acicularis [8]) [%] | inhibition of growth at 1000 g/ha (Echinochloa oryzicola [9]) [%] | inhibition of growth at 2500 g/ha (Lindernia procumbens [10]) [%] | inhibition of growth at 2500 g/ha (Cyperus serotinus [11]) [%] | inhibition of growth at 1000 g/ha (Cyperus serotinus [12]) [%] | inhibition of growth at 2500 g/ha [13] [%] | inhibition of growth at 2500 g/ha (Eleocharis kuroguwai [14]) [%]
1 | CCSc1c(C)on(C(=O)N(c2ccc(Cl)cc2)C(C)C)c1=O | 11 | < 10 | > 91 | > 91 | > 91 | > 91 | > 91 | > 91 | > 91 | > 91 | > 91 | > 91 | > 91 | > 91
2 | CCSc1c(C)on(C(=O)N(c2ccc(F)cc2)C(C)C)c1=O | 51 | – | – | – | > 91 | – | – | > 91 | – | > 91 | > 91 | – | > 91 | > 91
3 | CCSc1c(C)on(C(=O)N(c2ccc(C)cc2)C(C)C)c1=O | – | < 10 | 31 | > 91 | – | 71 | > 91 | – | > 91 | – | – | > 91 | – | –
4 | CCSc1c(C)on(C(=O)N(c2ccc(Cl)cc2Cl)C(C)C)c1=O | – | < 10 | 71 | > 91 | – | 71 | > 91 | – | > 91 | – | – | > 91 | – | –
5 | CCSc1c(C)on(C(=O)N(c2ccc(C#N)cc2)C(C)C)c1=O | – | 51 | 71 | > 91 | – | 71 | > 91 | – | > 91 | – | – | > 91 | – | –
6 | CCSc1c(C)on(C(=O)N(c2cccc([N+](=O)[O-])c2)C(C)C)c1=O | – | 11 | 71 | > 91 | – | 71 | > 91 | – | > 91 | – | – | > 91 | – | –
7 | CCSc1c(C)on(C(=O)N(c2cccc(C(F)(F)F)c2)C(C)C)c1=O | – | < 10 | 51 | 71 | – | 31 | > 91 | – | > 91 | – | – | > 91 | – | –
8 | CCSc1c(CC)on(C(=O)N(c2ccc(Cl)cc2)C(C)C)c1=O | 31 | < 10 | 51 | 51 | > 91 | 51 | > 91 | 71 | > 91 | 71 | > 91 | 71 | 71 | > 91
9 | CCCSc1c(C)on(C(=O)N(c2ccc(Cl)cc2)C(C)C)c1=O | 31 | < 10 | 51 | > 91 | > 91 | > 91 | > 91 | > 91 | > 91 | > 91 | > 91 | > 91 | > 91 | > 91
10 | CCCSc1c(C)on(C(=O)N(c2ccc(F)cc2F)C(C)C)c1=O | – | 11 | > 91 | > 91 | – | > 91 | > 91 | – | > 91 | – | – | > 91 | – | –
11 | Cc1on(C(=O)N(c2ccc(Cl)cc2)C(C)C)c(=O)c1SC(C)C | 31 | < 10 | 51 | > 91 | > 91 | 51 | > 91 | 71 | > 91 | > 91 | > 91 | > 91 | > 91 | > 91
12 | CCc1on(C(=O)N(c2ccc(Cl)cc2)C(C)C)c(=O)c1SC(C)C | < 10 | – | – | – | > 91 | – | – | 51 | – | 51 | > 91 | – | > 91 | > 91
13 | Cc1on(C(=O)N(c2ccc(Cl)cc2)C(C)C)c(=O)c1SC(F)F | – | 11 | 51 | > 91 | – | > 91 | > 91 | – | > 91 | – | – | > 91 | – | –
14 | COCCSc1c(C)on(C(=O)N(c2ccc(Cl)cc2)C(C)C)c1=O | 11 | < 10 | 31 | > 91 | > 91 | 51 | > 91 | 71 | > 91 | 51 | > 91 | > 91 | > 91 | > 91
15 | C#CCSc1c(C)on(C(=O)N(c2ccc(Cl)cc2)C(C)C)c1=O | 31 | < 10 | 51 | > 91 | > 91 | 51 | > 91 | 51 | > 91 | 71 | > 91 | > 91 | > 91 | > 91
16 | CCSc1c(C)on(C(=O)N(CC)c2ccc(Cl)cc2)c1=O | – | 31 | 71 | > 91 | – | 71 | > 91 | – | > 91 | – | – | > 91 | – | –
17 | CCCN(C(=O)n1oc(C)c(SCC)c1=O)c1ccc(Cl)cc1 | – | 11 | > 91 | > 91 | – | 71 | > 91 | – | > 91 | – | – | > 91 | – | –
18 | CCSc1c(C)on(C(=O)N(C)c2ccc(Cl)cc2)c1=O | 11 | – | – | – | > 91 | – | – | 71 | – | 71 | > 91 | – | 71 | > 91

— ChEMBL document CHEMBL3044584, “4-Sulfenyl-2-carbamoyl-4-isoxazolin-3-ones: biological isostere to 4-chloro-2-carbamoyl-4-isoxazolin-3-ones” (Chem Pharm Bull (Tokyo), 2000)
